Assay [1] relates to cirrhotic model mice. The experiment in a line: Serum biochemical testing (ALT, AST, TBil, MAO, ALB) in CCl4-induced liver cirrhosis model mice, Embodiment 3. It counts as in vivo. The text has this:
(§1) 120 SPF male C57BL/6N mice, 6-8 weeks old and 16-20 g body weight, were purchased from Beijing Huafukang Experimental Animal Technology Co., Ltd. (production license number: SOCK (Jing) 2019-0008). According to body weight, they were randomly divided into 12 groups (n=10): blank control group, model group, positive control group, A-01 low dose group, A-01 high dose group, A-02 low dose group, A-02 high dose group, B-01 low-dose group, B-01 high-dose group, B-02 low-dose group, B-02 high-dose group, and C high-dose group.
(§2) Except for the blank control group, liver cirrhosis model of mice in other groups was prepared by the method of carbon tetrachloride (CCl4)-induction treatment. The modeling protocol was as follows: (1) Each mouse was intraperitoneally injected with 10% CCl4 (diluted with olive oil) at 7 μL/g body weight, twice a week for a total of 8 weeks; mice of the blank control group were injected intraperitoneally with the same amount of olive oil solvent. (2) from the 6th week, two mice were selected and killed 48 hours after the last injection every week. The appearance of the liver was observed. After the appearance was in line with the characteristics of cirrhosis (the 8th week), the liver tissue was fixed with formalin. HE staining and Masson staining were used to evaluate the model of cirrhosis.
After the successful modeling, the mice in the positive control group were given intragastrically 25 mg/kg sorafenib; the mice in the low or high dose groups of A-01, A-02, B-01 and B-02 were given by intraperitoneal injection at 2.5 or 10 mg/kg respectively of the corresponding test material; the mice in the C high dose group were given by intraperitoneal injection at a dose of 40 mg/kg of C; and the mice in the blank control group and the model group were given intraperitoneally physiological saline at 10 mL/kg. The administration was once a day for 20 consecutive days.
After the administration was completed, blood was collected from mouse orbit, and sera were obtained for biochemical testing of albumin (ALbumin, ALB), total bilirubin (TBil), alanine Alanine aminotransferase (ALT), aspartate aminotransferase (AST) and monoamine oxidase (MAO) using Zhongsheng Beikong Kit and biochemical analyzer (Siemens). The detection method was performed in strict accordance with the kit instructions.

The subject of assay [2] is cirrhotic model mice. As to the kind of experiment: Pathological examination of liver (HE staining, Masson staining) in CCl4-induced liver cirrhosis model mice, Embodiment 3. In kind it is in vivo, C57BL/6N mice. Conditions: 25 mg/kg intragastrically 20 days.
Source text: as §1
as §2, with “cirrhosis. […]” for “cirrhosis.”

Setting [3] is: 25 mg/kg intragastrically 20 days.
Where [4] appears, read: 25 mg/kg intragastrically 20 days, listed as positive control.
The mark [5] stands for this setting: 25 mg/kg intragastrically 20 days, listed as positive control drug.

As to `CNC(=O)c1cc(Oc2ccc(NC(=O)Nc3ccc(Cl)c(C(F)(F)F)c3)cc2)ccn1` [sorafenib, Sorafenib], in assay [1] (setting [3]), the “serum ALT level versus model group” value is on record as “significantly reduced”, the “serum AST level versus model group” value was “significantly reduced” and the “serum TBIL level versus model group” value is reported as “significantly reduced”. In addition, in assay [1] (setting [4]), the “serum ALB level versus model group” value was “did not significantly affect” and the “serum MAO activity versus model group” value is “did not decrease”. In assay [1] (setting [5]), the “serum ALB level versus model group” value is reported as “no significant effect” and the “serum MAO activity versus model group” value was “no effect”. For the same compound, the “serum MAO activity” value in assay [1] (25 mg/kg intragastrically 20 days, model group 21.5±0.7) was found to be 21.3±2.1 U/L. In addition, in assay [1] (25 mg/kg intragastrically 20 days, model group 192.0±11.3), the “serum AST activity” value is listed as 165.5±11.6 U/L. For the same compound, in assay [1] (25 mg/kg intragastrically once a day for 20 days, model group 188.5±4.9), the “serum ALT activity” value amounted to 42.8±5.4 U/L. Moreover, in assay [2], the “HE staining: liver damages versus model group” value is given as “significant reduction of liver damages”.

These data come from patent publication US12636312B2, “Gold clusters (AuCs), composition and method for treatment of liver cirrhosis” (Wuhan Vast Conduct Science Foundation CO., LTD., priority 2020, dated 2026).
